These results are taken from patent publication US20080207521A1, “PEPTIDE LIGAND TO IMPAIR CANCER CELL MIGRATION” (priority 2005, published 2008).

What all share (type): cell-based, human
For one assay, the system named is DDR1. Nature of the assay: Collagen-induced DDR1 phosphorylation in Wnt-5a antisense HB2 cells (immunoprecipitation/Western blot). The following applies: crude peptide (approximately 65% pure) 100 μM; 90 min on collagen I. On the procedure:
The phosphorylation status of DDR1 was analyzed as previously described (12), with the following modifications. After serum-depletion for 16 h, the cells were detached with Versene and then allowed to adhere to collagen I for 60 (MDA-MB-468) or 90 min (HB2) at 37° C. The experiments were terminated by lysing both adherent and non-adherent cells with a lysis buffer (50 mM Tris pH 7.4, 1% Triton-X, 5 mM EDTA, 5 mM EGTA, 50 mM NaCl, 10 μg/ml aprotinin, 2.5 mM benzamidine, 1 mM pefabloc, 1 μg/ml leupeptin and 1 mM Na3VO4). For immunoblotting an anti-DDR1 rabbit polyclonal Ab, sc-532 (Santa Cruz Biotech, Santa Cruz, Calif.) was used at a dilution of 1:10,000. The Ab recognizes DDR1b/c, which is essential because collagen only induces phosphorylation of the b or c isoforms of DDR1 in mammary epithelial cells (10).
Effects of crude peptides on collagen-induced DDR1 phosphorylation in Wnt-5a antisense HB2 cells. Single cells were allowed to adhere to collagen I-coated plates in the presence of the indicated crude peptide (100 μM). (A) Experiments performed in the presence of peptides 167-173. (B) Experiments performed in the presence of peptides 175-180. After 90 min the cells were lysed and DDR1 immunoprecipitated. Subsequently, the immunoprecipitates were subjected to Western blot analysis with an anti-phosphotyrosine Ab and then, after stripping, with an anti-DDR1 Ab to ascertain equal loading. The blots shown are representative of 3 separate experiments The diagrams show densitometric analysis of DDR1 phosphorylation, expressed as per cent of control.
A general note: A western blot detects proteins with antibodies after separation by electrophoresis.

In assay [1] the test system is Wnt-5a antisense HB2 cells. Nature of the assay: Adhesion of Wnt-5a antisense HB2 cells to collagen I (MTS). The settings on record: for adhesion to collagen I, concentration-dependent analysis: 95% pure peptides, different concentrations. As to the method:
(§1) The adhesion assay was carried out as previously described (12). Briefly, cells were serum-depleted for 16 h, detached with Versene and allowed to adhere as single cells to collagen I for 60 (MDA-MB-468) or 90 min (HB2) at 37° C. Non-adherent cells were removed by washing with PBS. The adherent cells were incubated with a (3-(4,5-dimethylthiazol-2-yl)-5-(3-carboxymethoxyphenyl)-2-(-4-sulfophenyl)-2H-tetrazolium, inner salt (MTS) dye reduction assay (Promega, Madison, Wis.) and absorbance was measured at 490 nm using a Fluostar microplate reader from BMG LabTechnologies (GmbH, Offenberg, Germany). In each experiment a single value was calculated based on the mean of adhesion from six separate wells after the adhesion to plastic alone had been subtracted. The CM used as a control in the adhesion assays was obtained from confluent Wnt-5a overexpressing HB2 cells (for experiments with Wnt-5a antisense HB2 cells) or Wnt-5a overexpressing MCF-7 cells (for MDA-MB-468 cells) stably transfected with a vector over-expressing Wnt5a. A collected CM was always used within three days.
To control the specificity of the CM, it was incubated with either the Wnt-5a or a control Ab for 45 min at 37° C. Subsequently 10 μl Protein A Sepharose was added for 30 min and after the protein A-bound antibodies were collected by centrifugation the remaining supernatants were used for the experiments.
Effects of crude peptides on adhesion of Wnt-5a antisense HB2 cells to collagen. (A) Single cells were allowed to adhere for 90 min in the absence or presence of the indicated crude peptides (100 μM). The amounts of adhesive cells were analyzed as described in the methods and the results are given as means±SEM of 7 separate experiments. (B) Adhesion of Wnt-5a antisense HB2 cells to collagen was analyzed after pre-treating the cells with an anti-[…]1-integrin Ab for 45 min before letting them adhere for 90 min in the absence or presence of peptides 171 or 175 (100 μM) or CM. The amounts of adhesive cells were analyzed as described in the methods and the results are given as means±SEM of 6 separate experiments (C) The diagram outlines a control of the presently used CM. The cells were allowed to adhere to collagen I-coated wells in the absence or presence of normal CM or Wnt-5a depleted CM. The amounts of adhesive cells were analyzed as described in the methods and the results are given as means±SEM of 6 separate experiments. Ns=not significant, * p<0.05, ** p<0.01 and *** p<0.001.
Effects of the selected and pure peptides on the ability of Wnt-5a antisense HB2 cells to adhere and migrate. (A-E) The ability of the cells to adhere to collagen type I-coated wells was analyzed as previously described for FIG. 2 in the absence or presence of different concentrations of the indicated peptide. (F) Effect of the indicated peptides on migration of Wnt-5a antisense HB2 in a transwell migration assay. The cells were allowed to migrate for 18 h in the absence or presence of 100 μM peptide or 0.4 μg/ml of recombinant Wnt5a. The data are given as means±SEM of 6-7 separate experiments, each performed in triplicate. * p<0.05 and ** p<0.01.

The test system of the next assay is MDA-MB-468 cells. Nature of the assay: Adhesion of MDA-MB-468 breast cancer cells to collagen I (MTS). The settings on record: for adhesion to collagen I, N-terminal deletion variants and formylation of peptide 175: 60 min; for MDA-MB-468 cell adhesion: control 15.3±3.6, n=6. As to the method: as §1
Peptide-induced effects on adhesion and DDR1 phosphorylation in MDA-MB-468 breast cancer cells. (A) Western blot analysis of Wnt-5a protein expression in Wnt-5a antisense and Wnt-5a over-expressing HB2 cells in comparison to MDA-MB-468 tumour cells. The blot is representative of 9 separate experiments. (B) Peptide-induced effects on MDA-MB-468 tumour cell adhesion. The cells were allowed to adhere to collagen type I-coated wells for 60 min in the absence or presence of 100 μM of the indicated peptides or CM. The amounts of adhesive cells were analyzed as described in the methods and the results are given as means±SEM of 8 separate experiments. (C) MDA-MB-468 cell adhesion to collagen I-coated wells in the absence or presence of peptide 175 or a peptide with same amino acid sequence except for a substitution of cysteine for alanine (175Ala) or CM. The amount of adherent cells was estimated as in panel A and expressed as means±SEM of 6 separate experiments, ns=not significant, ** p<0.01 and *** p<0.001. (D) Single MDA-MB-468 cells were allowed to adhere to collagen I-coated plates for 60 min in the absence or presence of the indicated peptides (100 μM), CM or recombinant Wnt-5a (0.8 µg/ml). DDR1 immunoprecipitates were Western blotted with first an anti-phosphotyrosine Ab and then after stripping with an anti-DDR1 Ab. The blots shown are representative of 6 separate experiments.
Effects of peptide 175 modifications on its ability to induce MDA-MB-468 tumour cell adhesion and migration. (A) The cells were allowed to adhere for 60 min to collagen-I coated wells in the absence or presence of peptide 175, three stepwise N-terminal deletion variants of peptide 175 or a formylated version of the tested hexapeptide derived from peptide 175. The amounts of adhesive cells were analyzed as described in the methods and the results are given as means±SEM of 6 separate experiments. (B and C) The cells were allowed to migrate for 18 h in the absence or presence of 1 or 10 μM of peptide 175 (B) or the formylated hexapeptide (C). The data are given as means±SEM of 6 separate experiments, each performed in triplicate. * p<0.05, p<0.01.

Ends that are not written are not given here.

On to “DARERERIHAKGSYE [peptide 168, Wnt-5a aa 183-197]”, for which the DDR1 phosphorylation result in the assay on DDR1 is “significant DDR1 phosphorylation”. Besides, the “adhesion to collagen I” value in assay [1] (crude peptide (65% pure) 100 μM, 90 min) was “did not have any effect on adhesion”.
“EGMDGCEL (Human) [octapeptide, N-terminal deletion variant of peptide 175]”: in the assay with MDA-MB-468 cells, the “adhesion to collagen I, N-terminal deletion variants and formylation of peptide 175” value was “still had adhesion-increasing effects”.
As to “LGTQGRLCNKTSEGMDGCEL (Human) [peptide 174, Wnt-5a aa 303-322]”, the “adhesion to collagen I, concentration-dependent analysis” value in assay [1] is “not as effective as the shorter peptide 175”.
On to “MDGCEL [hexapeptide, N-terminal deletion variant of peptide 175]”, for which, in the assay on MDA-MB-468 cells, the “adhesion to collagen I, N-terminal deletion variants and formylation of peptide 175” value was “no effect was detectable and none”.
Take “VKAKKATEIVDQFVA [compound 170, Wnt-5a aa 350-364; the 3 cysteines exchanged to alanines]”: the DDR1 phosphorylation result in the assay on DDR1 was “significant DDR1 phosphorylation”. Further, in assay [1], the “adhesion to collagen I, concentration-dependent analysis” value is “lost or less consistent”.
As for fMet-Leu-Phe (MLF) [reference compound], the MDA-MB-468 cell adhesion in the assay on MDA-MB-468 cells is listed as 15.7±4.5; in the assay on MDA-MB-468 cells (listed as N-formyl-Met-Leu-Phe), “no effect”.
